Reference: patent US8865741B2, “Aminoindane compounds and use thereof in treating pain” (Asana Biosciences, LLC, priority 2011, dated 2014)

Tested on: sodium channel in hTRPV1-N1E115 cells
Test: FLIPR membrane potential assay of sodium channel response in hTRPV1-N1E115 cells, with (47° C.) or without (25° C.) heat activation of hTRPV1
Assay type: cell-based
Conditions: for hTRPV1-N1E Nav 0.1 mM (% inhibition) 25° C. / hTRPV1-N1E Nav 1 mM (% inhibition) 25° C.: 25° C. (no heat activation of hTRPV1); for hTRPV1-N1E Nav 0.1 mM (% inhibition) 47° C. / hTRPV1-N1E Nav 1 mM (% inhibition) 47° C.: 47° C. (heat activation of hTRPV1); for hTRPV1-N1E Nav 0.1 mM (% inhibition) 47° C., DMSO / IC50: 47° C.; for IC50: class symbols, read-out: hTRPV1-N1E IC50 (μM) 47° C.
Text: In one embodiment, a modified FLIPR® (Fluorometric Imaging Plate Reader) based assay system was developed which is capable of discriminating between non-specific versus hTRPV1-mediated entry of test compounds. Advantageously, the assay system utilizes heat activated opening of hTRPV1 channels followed by an assessment of internal sodium channel block. The assay allows a permanently charged compound to selectively enter through opened hTRPV1 channels and that compound's potency in inhibiting sodium channels from the cytoplasm side of the same cell can be assessed and quantified.
The assay is readily performed in multi-well assay plates into which cells in growth media are added and incubated under conditions which permit the formation of a confluent monolayer over a period of hours prior to the start of the assay. Conventional culture media and conditions may be utilized. Duplicate cell assay plates are prepared for each experiment.
The spent media from the cell seeded plates is removed on the day of the assay and replaced with Membrane potential Dye-Blue (Molecular Devices). The dye was prepared in assay buffer following manufacturer's instructions. The dye-loaded plate is incubated at room temperature (about 25° C.) for about 30 minutes in order to pre-load the cells with dye. Optionally, the cells may be loaded with the dye simultaneously with adding the test compounds.
The test compounds are diluted in the Assay Buffer and added to each well of a specific 384-well ‘compound plate’, which serves as a source plate for compound addition using the FLIPR® platform. The concentration of compounds in the compound-plate was adjusted to achieve the desired final concentration when added to the cells in the ‘cell-plate’. After completion of the dye incubation period, the dye loaded cell-plates and the compound source plates are inserted into the FLIPR® Tetra™ device with a 384 FLIPR® tip box (Molecular Devices, Inc.) according to manufacturer's instructions. The compounds are robotically added to the dye loaded cell-plates using software integral to the FLIPR® Tetra™ instrument.
Immediately following compound addition, hTRPV1 is activated, in one of the duplicate cell plates, by heating. Specifically, entire multi-well plate containing the compound-cells mixture is incubated at 47° C. for 10 minutes, after which they are returned to room temperature (about 25° C.) for a further 30 minutes. Heat activation of hTRPV1 was omitted from the replicate cell plate which was simply maintained at room temperature for the entire 40 minutes.
A membrane potential response is elicited in the dye- and compound-loaded cells by the addition of veratridine which is a known sodium channel ‘agonist’. As illustrated in an example herein, an agonist plate containing veratridine (Sigma) is prepared in advance and is inserted into suitable devices such as, e.g., the FLIPR® TETRA® device for a “2nd addition” as instructed by the manufacturer. The concentration of veratridine in the ‘agonist plate’ was adjusted to achieve a final concentration of 100 μM when added to the cells in the cell-plate. Final concentrations of veratridine greater or lesser than 100 μM may also be used but the signal measured by the FLIPR®^Tetra™ device or another suitable device may vary accordingly.
The exposure of the cells in the cell-plate to veratridine induces sodium channels in the cells to open and the resulting ion flux produces a membrane potential depolarization that is detected as a fluorescence signal by the FLIPR® ^Tetra™ Device. The activity of test compounds is determined by their ability to attenuate the veratridine-induced fluorescence signal, the most promising compounds are those that show an enhanced activity in the heat-activated cell plate over the non-heat-activated cell plate. […]

IC50 [µM] | SMILES | hTRPV1-N1E Nav 0.1 mM (% inhibition) 25° C., DMSO [%] | hTRPV1-N1E Nav 0.1 mM (% inhibition) 47° C., DMSO | hTRPV1-N1E Nav 0.1 mM (% inhibition) 25° C. [%] | hTRPV1-N1E Nav 0.1 mM (% inhibition) 47° C. | hTRPV1-N1E Nav 1 mM (% inhibition) 25° C. | hTRPV1-N1E Nav 1 mM (% inhibition) 47° C.
– | CCC[N+]1(CCC)CCCC[C@@H]1CCN(c1ccccc1)C1Cc2ccccc2C1.[I-] [Example 12, (R)-1,1-Dipropyl-2-[2-((indan-2-yl)(phenyl)amino)ethyl]piperidinium iodide] | 49 | 87 (N = 4, DMSO) % | – | – | – | –
1 to 10 | CC[N+]1(CC)CCCCC1CCN(c1ccccc1C)C1Cc2ccccc2C1.[I-] (stereo not shown) [Example 25, 1,1-Diethyl-2-[2-((indan-2-yl)(2-methylphenyl)amino)ethyl]piperidinium iodide] | – | – | 26.4 | 89.6 (N = 2) % | Insoluble | Insoluble
10 to 100 | Cc1ccccc1N(CCC1CC[N+](C)(C)CC1)C1Cc2ccccc2C1.[Br-] [Example 40, 1,1-dimethyl-4-[2-((indan-2-yl)(2-methylphenyl)amino)ethyl]piperidinium bromide] | – | – | 34.3 | – | – | –
10 to 100 | Cc1ccccc1N(CC[C@@H]1CCCC[N+]1(C)C)C1Cc2ccccc2C1 [Example 34, (S)-1,1-Dimethyl-2-[2-((indan-2-yl)(2-methylphenyl)amino)ethyl]piperidinium iodide] | – | – | – | – | – | –
– | Cc1cccc(N(CC2CCCC[N+]2(C)C)C2Cc3ccccc3C2)c1.[I-] (stereo not shown) [Example 29, 1,1-Dimethyl-2-[((indan-2-yl)(3-methylphenyl)amino)methyl]piperidinium iodide] | – | – | 68.9 | 82.9 (N = 2) % | 64.6 (N = 2) % | 75.3 (N = 2) %
10 to 100 | Cc1ccccc1N(CC[C@H]1CCCC[N+]1(C)C)C1Cc2ccccc2C1 [Example 35, (R)-1,1-Dimethyl-2-[2-((indan-2-yl)(2-methylphenyl)amino)ethyl]piperidinium iodide] | – | – | – | – | – | –
10 to 100 | C[N+]1(C)CCCCC1CCCN(c1ccccc1)C1Cc2ccccc2C1.[I-] (stereo not shown) [Example 7] | – | – | 27.3 | 57.9 (N = 2) % | Insoluble | Insoluble
10 to 100 | Cc1ccccc1N(CCC1CCCC[N+]1(C)C)C1Cc2ccccc2C1 (stereo not shown) [Example 52, 1,1-Dimethyl-2-[2-((indan-2-yl)(2-methylphenyl)amino)ethyl]piperidinium bromide] | – | – | – | – | – | –
10 to 100 | Cc1ccc(N(CCC2CCCC[N+]2(C)C)C2Cc3ccccc3C2)cc1.[I-] (stereo not shown) [Example 22, 1,1-Dimethyl-2-[2-((indan-2-yl)(4-methylphenyl)amino)ethyl]piperidinium iodide] | – | – | 8.7 | 62.7 (N = 2) % | 48 (N = 2) % | 69.9 (N = 2) %
1 to 10 | Cc1ccccc1N(CC[C@H]1CCCC[N+]1(C)C)C1Cc2ccccc2C1 [Example 51, (R)-1,1-Dimethyl-2-[2-((indan-2-yl)(2-methylphenyl)amino)ethyl]piperidinium chloride] | – | – | – | – | – | –
10 to 100 | C[N+]1(C)CCCC1CCN(c1ccccc1)C1Cc2ccccc2C1.[I-] (stereo not shown) [Example 5, 1,1-dimethyl-2-[2-((indan-2-yl)(phenyl)amino)ethyl]pyrrolidinium iodide] | – | – | 21 | 50 (N = 2) % | – | –
– | C[N+]1(C)CCCCC1CCN(c1ncccn1)C1Cc2ccccc2C1.[I-] (stereo not shown) [Example 38, 1,1-dimethyl-2-[2-((indan-2-yl)(pyrimidine-2-yl)amino)ethyl]piperidinium iodide] | – | – | 25.9 | 37.5 (N = 2) % | 46.6 (N = 2) % | 70.4 (N = 2) %
10 to 100 | CC[N+]1(CC)CCCC1CCN(c1ccccc1)C1Cc2ccccc2C1.[I-] (stereo not shown) [Example 36, 1,1-diethyl-2-[2-((indan-2-yl)(phenyl)amino)ethyl]pyrrolidinium iodide] | – | – | 5.4 | 74.0 (N = 2) % | – | –
10 to 100 | CC[N+]1(CC)CCCCC1CN(c1ccccc1)C1Cc2ccccc2C1.[I-] (stereo not shown) [Example 13, 1,1-Diethyl-2-[((indan-2-yl)(phenyl)amino)methyl]piperidinium iodide] | – | – | 67 | 99 (N = 2) % | 64 (N = 2) % | 92 (N = 2) %
10 to 100 | CC[N+]1(CC)CCCCC1CCN(c1ccc(F)cc1)C1Cc2ccccc2C1.[I-] (stereo not shown) [Example 18, 1,1-diethyl-2-[2-((4-fluorophenyl)(indan-2-yl)amino)ethyl]piperidinium iodide] | – | – | 0 | 86.9 (N = 3) % | 0 (N = 3) % | 38.2 (N = 3) %
10 to 100 | C[N+]1(C)CCCCC1CCN(c1cccc(F)c1)C1Cc2ccccc2C1.[I-] (stereo not shown) [Example 14, 1,1-dimethyl-2-[2-((3-fluorophenyl)(indan-2-yl)amino)ethyl]piperidinium iodide] | – | – | 6.3 | 76.7 (N = 3) % | 3.8 (N = 3) % | 25.3 (N = 3) %
– | Cc1ccc(N(CC2CCCC[N+]2(C)C)C2Cc3ccccc3C2)cc1.[I-] (stereo not shown) [Example 27, 1,1-Dimethyl-2-[((indan-2-yl)(4-methylphenyl)amino)methyl]piperidinium iodide] | – | – | 68.1 | 81.3 (N = 2) % | 61.4 (N = 2) % | 71.9 (N = 2) %
10 to 100 | C[N+]1(C)CCCCC1CCN(c1ccccn1)C1Cc2ccccc2C1.[I-] (stereo not shown) [Example 37, 1,1-dimethyl-2-[2-((indan-2-yl)(pyridine-2-yl)amino)ethyl]piperidinium iodide] | – | – | 21.5 | 60.7 (N = 2) % | 59.5 (N = 2) % | 24.0 (N = 2) %
10 to 100 | Cc1ccccc1N(CCC1CCCC[N+]1(CCO)CCO)C1Cc2ccccc2C1.[Br-] (stereo not shown) [Example 46, 1,1-Bis(2-hydroxyethyl)-2-[2-((indan-2-yl)(2-methylphenyl)amino)ethyl]piperidinium bromide] | – | – | 31.8 | 94.4 (N = 2) % | – | –
– | CCC[N+]1(CCC)CCCC[C@H]1CCN(c1ccccc1)C1Cc2ccccc2C1.[I-] [Example 1, (S)-1,1-dipropyl-2-[2-((indan-2-yl)(phenyl)amino)ethyl]piperidinium iodide] | 56 | 87 (N = 4, DMSO) % | – | – | – | –
– | C[N+]1(C)CCCCC1CCN(c1ccc2c(c1)OCCO2)C1Cc2ccccc2C1.[I-] (stereo not shown) [Example 42, 1,1-dimethyl-2-[2-((2,3-dihydrobenzo[b][1,4]dioxin-6-yl)(indan-2-yl)amino)ethyl]piperidinium iodide] | – | – | 0 | 64.9 (N = 2) % | – | –
10 to 100 | CC[N+]1(CC)CCCCC1CCN(c1cccc(F)c1)C1Cc2ccccc2C1.[I-] (stereo not shown) [Example 17, 1,1-diethyl-2-[2-((3-fluorophenyl)(indan-2-yl)amino)ethyl]piperidinium iodide] | – | – | 1 | 86.1 (N = 3) % | 6.1 (N = 3) % | 28.9 (N = 3) %
